According to US8454934B2, “High molecular weight chelation structure” (Canadian Blood Services, priority 2006, dated 2013):

Columns and labels:
mice = conditions: cited from earlier work
[1] = upon intravascular administration; cellular uptake and kidney clearance; cited from earlier work
[2] = Solubility in water and plasma, by absorbance versus wavelength (FIG. 20A); format: physicochemical; conditions: absorbance plots FIG. 20A, HMW-ICL-670 was 20% (by weight) ICL-670
Experimental: FIGS. 20A and 20B are plots of absorbance of radiation in water versus wavelength of the radiation, for low molecular weight ICL670 (3 mg/ml) and the chelation structure of the present invention (denoted as HMW) dissolved in the water, in accordance with embodiments of the present invention. […] The measured absorbance increases with increasing concentration of the chelators/chelation structures dissolved in the water and is thus a measure of the solubility of the chelators/chelation structures in the water.

CC(=O)N(O)CCCCCNC(=O)CCC(=O)N(O)CCCCCNC(=O)CCC(=O)N(O)CCCCCN.CS(=O)(=O)O [DFO, N-[5-(3-[(5-aminopentyl)-hydroxycarbamoyl]-propionamido)pentyl]-3-([5-(N-hydroxyacetamido)-pentyl]-carbamoyl)-propionohydroxamic acid monomethane sulphonate]
LD50 (mice): ~250 mg/kg
time to complete clearance from the vasculature [1]: approximately 20 minutes

O=C(O)c1ccc(-n2nc(-c3ccccc3O)nc2-c2ccccc2O)cc1 [ICL670, 4-[3,5-bis(2-hydroxyphenyl)-1,2,4-triazol-1-yl]-benzoic acid]
solubility in water [2]: insoluble in water
